Values belong to the compound of their own block, whether it stands above or below them.
Experiments:
[1] = target: Neuronal acetylcholine receptor subunit alpha-7 (Homo sapiens, UniProt P36544); assay: Positive allosteric modulatory activity against alpha7 nAChR in human IMR-32 cells assessed as potentiation of PNU-282987-induced Ca2+ […] at 1 uM by FLIPR assay relative to control; format: cell-based
[2] = Metabolic stability in dog liver microsomes assessed as compound remaining at 1 uM preincubated for 5 mins followed by NADPH addition and measured after 30 mins by LC-MS/MS analysis; format: ADME, Canis lupus familiaris, Microsome; details: read-out: Stability
[3] = AUClast in Beagle dog at 1 mg/kg, iv after 0.083 to 144 hrs by LC-MS/MS analysis; format: ADME, organism-based, Canis lupus familiaris; parameters: dose 1 mg/kg, time 0.083-144 hr, route intravenous; details: in vivo
[4] = Cmax in Beagle dog at 1 mg/kg, iv after 0.083 to 144 hrs by LC-MS/MS analysis; format: ADME, organism-based, Canis lupus familiaris; parameters: dose 1 mg/kg, route intravenous; details: in vivo
[5] = Drug metabolism in rat liver microsomes assessed as metabolic rate at 1 uM preincubated for 5 mins followed by NADPH addition after 30 mins by LC-MS/MS analysis; format: ADME, Microsome; details: 0.5 h
[6] = Metabolic stability in rat liver microsomes assessed as compound remaining at 1 uM preincubated for 5 mins followed by NADPH addition and measured after 30 mins by LC-MS/MS analysis; format: ADME, Microsome; details: read-out: Stability
[7] = Drug metabolism in human pooled liver microsomes assessed as metabolic rate at 1 uM preincubated for 5 mins followed by NADPH addition after 30 mins by LC-MS/MS analysis; format: ADME, Microsome; details: 0.5 h
[8] = Drug metabolism in dog liver microsomes assessed as metabolic rate at 1 uM preincubated for 5 mins followed by NADPH addition after 30 mins by LC-MS/MS analysis; format: ADME, Canis lupus familiaris, Microsome; details: 0.5 h
[9] = Oral bioavailability in Wistar rat at 10 mg/kg after 0.25 to 144 hrs by LC-MS/MS analysis; format: ADME, organism-based; details: in vivo
[10] = Metabolic stability in monkey liver microsomes assessed as compound remaining at 1 uM preincubated for 5 mins followed by NADPH addition and measured after 30 mins by LC-MS/MS analysis; format: ADME, Macaca mulatta, Microsome; details: rhesus monkey, read-out: Stability
[11] = Drug metabolism in mouse liver microsomes assessed as metabolic rate at 1 uM preincubated for 5 mins followed by NADPH addition after 30 mins by LC-MS/MS analysis; format: ADME, Microsome; details: 0.5 h
[12] = Drug metabolism in monkey liver microsomes assessed as metabolic rate at 1 uM preincubated for 5 mins followed by NADPH addition after 30 mins by LC-MS/MS analysis; format: ADME, Macaca mulatta, Microsome; details: rhesus monkey, 0.5 h
[13] = Volume of distribution at steady state in Wistar rat at 1 mg/kg, iv after 0.083 to 144 hrs by LC-MS/MS analysis; format: ADME, organism-based; details: in vivo, read-out: Vdss
[14] = Half life in Wistar rat at 1 mg/kg, iv after 0.083 to 144 hrs by LC-MS/MS analysis; format: ADME, organism-based; details: in vivo
[15] = Half life in Beagle dog at 1 mg/kg, iv after 0.083 to 144 hrs by LC-MS/MS analysis; format: ADME, organism-based, Canis lupus familiaris; details: in vivo
[16] = Tmax in Beagle dog at 1 mg/kg, iv after 0.083 to 144 hrs by LC-MS/MS analysis; format: ADME, organism-based, Canis lupus familiaris; details: in vivo
[17] = Metabolic stability in mouse liver microsomes assessed as compound remaining at 1 uM preincubated for 5 mins followed by NADPH addition and measured after 30 mins by LC-MS/MS analysis; format: ADME, Microsome; details: read-out: Stability
[18] = Tmax in Beagle dog at 10 mg/kg, po after 0.25 to 144 hrs by LC-MS/MS analysis; format: ADME, organism-based, Canis lupus familiaris; details: in vivo
[19] = Tmax in Wistar rat at 10 mg/kg, po after 0.25 to 144 hrs by LC-MS/MS analysis; format: ADME, organism-based; details: in vivo
[20] = Volume of distribution at steady state in Beagle dog at 1 mg/kg, iv after 0.083 to 144 hrs by LC-MS/MS analysis; format: ADME, organism-based, Canis lupus familiaris; details: in vivo, read-out: Vdss
[21] = Protein binding in human plasma at 5 uM incubated for 16 hrs under shaking condition by LC/MS/MS based rapid equilibrium dialysis method; format: ADME, cell-free; details: read-out: PPB (converted)
[22] = Clearance in Wistar rat at 1 mg/kg, iv after 0.083 to 144 hrs by LC-MS/MS analysis; format: ADME, organism-based; details: Wistar, in vivo
[23] = Tmax in Wistar rat at 1 mg/kg, iv after 0.083 to 144 hrs by LC-MS/MS analysis; format: ADME, organism-based; details: in vivo
[24] = Metabolic stability in human pooled liver microsomes assessed as compound remaining at 1 uM preincubated for 5 mins followed by NADPH addition and measured after 30 mins by LC-MS/MS analysis; format: ADME, Microsome; details: read-out: Stability
[25] = AUC (0 to 144 hrs) in Wistar rat at 10 mg/kg, po after 0.25 to 144 hrs by LC-MS/MS analysis; format: ADME, organism-based; parameters: dose 10 mg/kg, time < 144 hr, route oral; details: in vivo
[26] = Cmax in Wistar rat at 10 mg/kg, po after 0.25 to 144 hrs by LC-MS/MS analysis; format: ADME, organism-based; parameters: dose 10 mg/kg, route oral; details: in vivo
[27] = Oral bioavailability in Beagle dog at 10 mg/kg after 0.25 to 144 hrs by LC-MS/MS analysis; format: ADME, organism-based, Canis lupus familiaris; details: in vivo
[28] = AUC (0 to 144 hrs) in Wistar rat at 1 mg/kg, iv after 0.083 to 144 hrs by LC-MS/MS analysis; format: ADME, organism-based; parameters: time < 144 hr, dose 1 mg/kg, route intravenous; details: in vivo
[29] = Protein binding in rat plasma at 5 uM incubated for 16 hrs under shaking condition by LC/MS/MS based rapid equilibrium dialysis method; format: ADME, cell-free; details: read-out: PPB (converted)
[30] = Cmax in Wistar rat at 1 mg/kg, iv after 0.083 to 144 hrs by LC-MS/MS analysis; format: ADME, organism-based; parameters: dose 1 mg/kg, route intravenous; details: in vivo
[31] = AUClast in Beagle dog at 10 mg/kg, po after 0.25 to 144 hrs by LC-MS/MS analysis; format: ADME, organism-based, Canis lupus familiaris; parameters: time upper 144 hr, dose 10 mg/kg, time lower 0.25 hr, route oral; details: in vivo
[32] = Cmax in Beagle dog at 10 mg/kg, po after 0.25 to 144 hrs by LC-MS/MS analysis; format: ADME, organism-based, Canis lupus familiaris; parameters: dose 10 mg/kg, route oral; details: in vivo
[33] = Clearance in Beagle dog at 1 mg/kg, iv after 0.083 to 144 hrs by LC-MS/MS analysis; format: ADME, organism-based, Canis lupus familiaris; details: Beagle, in vivo

Sequence of Neuronal acetylcholine receptor subunit alpha-7 (P36544 whole entry): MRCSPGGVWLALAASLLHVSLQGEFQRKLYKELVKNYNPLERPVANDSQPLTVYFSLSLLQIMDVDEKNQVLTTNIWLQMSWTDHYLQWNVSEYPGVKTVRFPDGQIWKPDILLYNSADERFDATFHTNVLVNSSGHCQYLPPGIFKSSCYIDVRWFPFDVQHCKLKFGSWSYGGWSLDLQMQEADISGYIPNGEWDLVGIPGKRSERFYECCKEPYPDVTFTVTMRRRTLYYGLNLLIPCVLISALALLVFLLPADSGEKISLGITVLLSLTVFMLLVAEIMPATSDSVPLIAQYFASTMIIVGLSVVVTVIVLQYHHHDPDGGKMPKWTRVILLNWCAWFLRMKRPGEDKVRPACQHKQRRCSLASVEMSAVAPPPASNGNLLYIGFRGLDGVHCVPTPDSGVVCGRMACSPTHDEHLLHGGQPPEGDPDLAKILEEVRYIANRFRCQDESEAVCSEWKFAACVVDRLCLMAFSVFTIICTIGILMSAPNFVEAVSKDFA

SMILES: CCC(=O)c1sc(-c2ccoc2)c(C)c1-c1ccc(S(N)(=O)=O)cc1
- fold change (FC) [1]: 1

SMILES: CCC(=O)c1sc(-c2ccccc2Cl)c(C)c1-c1ccc(S(N)(=O)=O)cc1
- fold change (FC) [1]: 1

SMILES: CCC(=O)c1sc(-c2ccc(C(F)(F)F)cc2)c(C)c1-c1ccc(S(N)(=O)=O)cc1
- fold change (FC) [1]: 15.3

SMILES: CCC(=O)c1sc(-c2ccccc2)c(C)c1-c1ccc(S(N)(=O)=O)cc1
- fold change (FC) [1]: 2.4

SMILES: CCC(=O)c1sc(-c2ccc(Cl)cc2Cl)c(C)c1-c1ccc(S(N)(=O)=O)cc1
- fold change (FC) [1]: 12

SMILES: CCC(=O)c1sc(-c2ccc(C(C)(C)C)cc2)c(C)c1-c1ccc(S(N)(=O)=O)cc1
- fold change (FC) [1]: 1

SMILES: CCC(=O)c1sc(-c2ccncc2)c(C)c1-c1ccc(S(N)(=O)=O)cc1
- fold change (FC) [1]: 1

Second part, the compound after the results:

- fold change (FC) [1]: 7
SMILES: CC(=O)c1sc(-c2ccc(Cl)cc2)c(C)c1-c1ccc(S(N)(=O)=O)cc1

- fold change (FC) [1]: 19
SMILES: CCC(=O)c1sc(-c2ccc(N(C)C)cc2)c(C)c1-c1ccc(S(N)(=O)=O)cc1

- fold change (FC) [1]: 1
SMILES: CCC(=O)c1sc(-c2cccc(Cl)c2)c(C)c1-c1ccc(S(N)(=O)=O)cc1

- fold change (FC) [1]: 1
SMILES: Cc1c(-c2ccc(Cl)cc2)sc(C(=O)N(C)C)c1-c1ccc(S(N)(=O)=O)cc1

- fold change (FC) [1]: 1
SMILES: Cc1c(-c2ccc(Cl)cc2)sc(C(=O)N2CCCCC2)c1-c1ccc(S(N)(=O)=O)cc1

- fold change (FC) [1]: 8.7
SMILES: CCC(=O)c1sc(-c2ccc(F)cc2)c(C)c1-c1ccc(S(N)(=O)=O)cc1

- remaining at 0.5 h, 1 µM [2]: 84%
- AUC(0-t) [3]: 3.2 µM·h
- Cmax [4]: 2300 nM
- Drug metabolism [5]: 0.01 nmol/min/mg
- remaining at 0.5 h, 1 µM [6]: 97%
- Drug metabolism [7]: 0.03 nmol/min/mg
- Drug metabolism [8]: 0.02 nmol/min/mg
- bioavailability [9]: 63%
- remaining at 0.5 h, 1 µM [10]: 67%
- Drug metabolism [11]: 0.03 nmol/min/mg
- Drug metabolism [12]: 0.05 nmol/min/mg
- Vd [13]: 3 L/kg
- half-life [14]: 1.4 h
- half-life [15]: 2 h
- Tmax [16]: 0.25 h
- remaining at 0.5 h, 1 µM [17]: 78%
- Tmax [18]: 1.17 h
- Tmax [19]: 2 h
- Vd [20]: 2 L/kg
- fraction unbound at 16 h, 5 µM [21]: 0.002
- clearance [22]: 31 mL/min/kg
- Tmax [23]: 4.8 min
- remaining at 0.5 h, 1 µM [24]: 81%
- AUC(0-t) at 144 h [25]: 8.2 µM·h
- Cmax [26]: 3000 nM
- bioavailability [27]: 4%
- fold change (FC) [1]: 22
- AUC(0-t) at 144 h [28]: 1.3 µM·h
- fraction unbound at 16 h, 5 µM [29]: 0.003
- Cmax [30]: 900 nM
- AUC(0-t) [31]: 1.3 µM·h
- Cmax [32]: 400 nM
- clearance [33]: 12 mL/min/kg
SMILES: CCC(=O)c1sc(-c2ccc(OC)cc2)c(C)c1-c1ccc(S(N)(=O)=O)cc1

- fold change (FC) [1]: 7
SMILES: CCC(=O)c1sc(-c2ccc(C3CC3)cc2)c(C)c1-c1ccc(S(N)(=O)=O)cc1

- fold change (FC) [1]: 1
SMILES: CCCN(CCO)C(=O)c1sc(-c2ccc(Cl)cc2)c(C)c1-c1ccc(S(N)(=O)=O)cc1

- fold change (FC) [1]: 6
SMILES: CCOc1ccc(-c2sc(C(=O)CC)c(-c3ccc(S(N)(=O)=O)cc3)c2C)cc1
